Experimental data taken from US11981695B2, “Linoleic acid derivatives, pharmaceutical composition or food composition comprising said linoleic acid derivatives, and their uses” (UNIVERSITÉ DE BOURGOGNE, priority 2018, dated 2024).
Entries after “also recorded” stand apart in the source; their conditions may differ. Blank lines part the entries; values can stand above or below the molecule they belong to.

Tests used:
mouse taste bud cells = assay: Ca2+ signaling (Fura-2/AM, F340/F380) in mouse taste bud cells; assay type: cell-based; conditions: for EC50: 0 to 200 μM, Δ ratio F340/F380, n=6, read-out: EC50 of dose-dependent increases in [Ca2+]i
Method: Briefly, lingual epithelium was separated by enzymatic dissociation which contained the following: elastase and dispase mixture, 2 mg/ml each, in Tyrode's buffer (120 mM NaCl; 5 mM KCl; 10 mM HEPES ((4-(2-hydroxyethyl)-1-piperazineethanesulfonic acid); 1 mM CaCl2; 1 mM MgCl2; 10 mM glucose; 10 mM Na pyruvate, pH 7.4). The taste bud cells were isolated by incubating lingual epithelium in RPMI 1640 medium containing 2 mM EDTA, 1.2 mg/ml elastase, 0.6 mg/ml collagenase (type 1), and 0.6 mg/ml trypsin inhibitor at 37° C. for 10 minutes, followed by centrifugation (600 g, 10 minutes). The cell populations, after separation, were suspended in fresh RPMI 1640 medium containing 10% fetal calf serum, 200 U/ml penicillin, and 0.2 mg/ml streptomycin, seeded onto a Poly-D-Lysine-coated dishes, and cultured for 24 hours. At the end of this period, the cells were used for the experiments or stained with trypan blue to assess their viability.
(§1) The mouse taste bud cells were seeded in 24-well plates (with glass bottom), containing poly-D-lysine for better adhesion to the surface. After 24 h, taste cells were incubated for 45 minutes with a fluorescent probe, Fura-2/AM (1 μM) in calcium buffer (110 mM NaCl, 5.4 mM, KCl, 25 mM, NaHCO3, 0.8 mM, MgCl2, 0.4 mM, KH2PO4, 20 mM, Hepes-Na, 0.33 mM, NaHPO4, 1.2 mM, CaCl2, pH 7.4). Then, the cells are washed with phosphate buffer saline (PBS) and taken up in calcium buffer.
(§2) The changes in intracellular Ca^2+ (F340/F380) were monitored under a Nikon microscope (TiU) by using an S Fluor 40× oil immersion objective.
(§3) Especially, the increases in [Ca^2+ ]i were measured as follows: the mice taste bud cells were cultured on Willico-Dish wells with a glass bottom and loaded with a fluorescent probe, Fura-2/AM. The changes in intracellular Ca^2+ (F340/F380) were monitored under the Nikon microscope (TiU) by using S-fluor 40× oil immersion objective. The planes were taken at Z intervals of 0.3 μm, and NIS-Elements software was used to deconvolve the images. The microscope was equipped with EM-CCD (Lucas) camera for real time recording of 16-bit digital images. The dual excitation fluorescence imaging system was used for studies of individual cells. The changes in intracellular Ca^2+ were expressed as ΔRatio, which was calculated as the difference between the peak F340/F380 ratio. The data were summarized from the large number of individual cells (20-40 cells in a single run, with 3-9 identical experiments done in at least three cell preparations). The results were analyzed with the NIS-elements software, the variation in [Ca^2+]i is expressed as Δ ratio (F340/F380 which was calculated with the difference of spectra at two wavelengths, i.e., 340 nm and 380 nm.

CD36 = biological target: T1, CD36 (Mus musculus, UniProt Q08857); assay: Ca2+ signaling in mouse taste bud cells in presence or absence of CD36 inhibitor SSO; assay type: cell-based; conditions: for action of CD36 inhibitor SSO on the increase in [Ca2+]i: 20 μM SSO, mouse taste bud cells; for CD36 agonist character: judged from suppression by SSO
T1 construct: freshly isolated and primary cultured mice type II taste bud cells (expressing GPR120 and CD36) are used; endogenous in cells; host or cells: primary mouse taste bud cells from fungiform papillae
T1 sequence (Q08857 whole entry): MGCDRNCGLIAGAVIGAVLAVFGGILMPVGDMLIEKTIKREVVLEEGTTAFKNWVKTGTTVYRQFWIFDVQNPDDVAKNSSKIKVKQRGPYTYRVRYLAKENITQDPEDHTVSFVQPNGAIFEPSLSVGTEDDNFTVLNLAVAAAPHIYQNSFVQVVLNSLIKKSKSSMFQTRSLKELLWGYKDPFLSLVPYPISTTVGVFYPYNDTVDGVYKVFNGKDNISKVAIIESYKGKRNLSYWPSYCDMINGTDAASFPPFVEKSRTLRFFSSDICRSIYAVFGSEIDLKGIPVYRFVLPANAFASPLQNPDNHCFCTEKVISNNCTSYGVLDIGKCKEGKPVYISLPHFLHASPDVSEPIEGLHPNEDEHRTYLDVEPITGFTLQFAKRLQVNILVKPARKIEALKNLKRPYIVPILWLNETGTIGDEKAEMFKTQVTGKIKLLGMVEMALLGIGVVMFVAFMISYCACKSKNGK
Method: as §1, §2, §3
CD36: in order to assess if the linoleic acid derivatives according to the invention exert their actions via CD36, sulfo-N-succinimidyl oleate (SSO) was used. SSO is a CD36 inhibitor/blocker/antagonist.
Experiments were performed in the presence or absence of SSO with respect to calcium signaling to verify whether our analogs act well via this lipid receptor. Especially, for this assay, NKS-3, NKS-5 and linoleic acid (control) were tested.

GPR120 = biological target: T2, GPR120 (Mus musculus, UniProt Q7TMA4); assay: Ca2+ signaling in mouse taste bud cells in presence or absence of GPR120 antagonist AH7614; assay type: cell-based; conditions: AH7614 20 μM, NKS-5 50 μM
T2 construct: freshly isolated and primary cultured mice type II taste bud cells (expressing GPR120 and CD36) are used; endogenous in cells; host or cells: primary mouse taste bud cells from fungiform papillae
T2 sequence (Q7TMA4 1-361): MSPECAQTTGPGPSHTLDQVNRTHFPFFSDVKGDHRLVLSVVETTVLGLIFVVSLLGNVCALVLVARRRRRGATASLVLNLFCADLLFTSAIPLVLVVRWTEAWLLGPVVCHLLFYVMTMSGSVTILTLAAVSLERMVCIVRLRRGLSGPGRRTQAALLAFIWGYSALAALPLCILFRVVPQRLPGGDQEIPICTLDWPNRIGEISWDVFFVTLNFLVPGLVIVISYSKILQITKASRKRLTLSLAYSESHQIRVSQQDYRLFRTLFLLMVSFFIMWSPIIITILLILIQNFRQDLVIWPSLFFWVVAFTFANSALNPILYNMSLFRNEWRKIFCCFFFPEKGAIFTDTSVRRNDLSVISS
Method: as §1, §2
as §3, with “The planes were taken at Z intervals of 0.3 μm, and NIS-Elements software was used to deconvolve the images. The microscope was equipped with EM-CCD (Lucas) camera for real time recording of 16-bit digital images.” left out, “The data were summarized from the large number of individual cells (20-40 cells in a single run, with 3-9 identical experiments done in at least three cell preparations).” left out, “nm. […]” for “nm.”

mice (C57Bl/6 black) = assay: Two-bottle preference test; assay type: in vivo, mouse; conditions: for ratio of LA preferred concentration to that of test compound: LA preferred at 7.13 mM or 0.2%; for preference versus control solution (xanthan gum) / effect on palatability of a sucrose-containing solution / preferred (optimal) concentration in two-bottle preference test: 12 h; for preference versus control solution (xanthan gum): 0.3% xanthan gum, test compound 10 to 200 μM or linoleic acid 0.2% (v/v); for effect on palatability of a sucrose-containing solution: sucrose versus sucrose plus test compound 50 μM; for preferred (optimal) concentration in two-bottle preference test: versus xanthan gum
Method: Eight weeks old, male mice (C57Bl/6 black) were purchased from the Janvier Elevage (Le Mans) and used for these experiments.
The mice are placed individually in cages in a controlled environment (humidity and constant temperature) and have free access to a standard diet. 6 hours before the tests, the mice are deprived of water.
During the behavioral experiments, the mice were offered two bottles simultaneously for 12 hours (night period).
The mice are subjected to a choice between the “control” solution and the experimental solution.
Experiment 1 (FIG. 5, FIG. 6A, FIG. 7) • control solutions contain 0.3% xanthan gum, w/v, (Sigma Life Science, USA) in water to reproduce lipid texture and minimize bias due to differences in appearance between the two bottles; • the experimental solution contains, in addition to xanthan gum, 0.3% (w/v), either the “test compound” according to the invention at a concentration varying from 10 to 200 μM (NKS-3, FIG. 6A or NKS-5, FIG. 7) or linoleic acid at 0.2% (v/v) (control test, FIG. 5). To avoid the preference for one side, the position of each bottle is changed during each test.
Experiment 2 (FIG. 6B and FIG. 8): gustatory properties • control solutions contain 2% of sucrose (w/v); • the experimental solution contains, in addition to sucrose (2% w/v), the “test compound” according to the invention (NKS-3, FIG. 6B or NKS-5, FIG. 8) at a concentration of 50 μM.
To estimate the consumption of control and experimental solutions, the bottles are weighed before and after each experiment. The mice are allowed to take rest for 48 hours between each experiment.

obese C57BL/6J mice [1] = assay: Diet-induced obesity, body weight; assay type: in vivo, mouse; conditions: for body weight in obese mice: HFD, analogues in feeder bottles from 10th to 28th week, NKS-5 75 μM, NKS-3 50 μM; for body weight of control animals: normal diet
Method: (§4) C57BL/6J male mice, aged between 6 to 10 weeks (16-20 g), were obtained from Janvier Labs (France). They were housed individually in a controlled environment with a 12 h light/dark cycle with food (SAFE, France) and water ad libitum. The palm oil (Huilerie Vigean, France) was the main fat component in high-fat diets. The high-fat diet was prepared weekly and stored at 4° C. until further use. The study was conducted as per Declaration of Helsinki and European ethical guidelines for the care and use of animals for experimentation. All the experimental protocols (protocol number: 16158) were approved by the Regional Ethical Committee of the University of Burgundy (Dijon, France).
(§5) The mice were grouped at random (n=10/group) and fed with either of the following diets: standard diet (STD) or high-fat diet (HFD). The body weight, food, and water intake were measured, weekly.
(§6) After 10 weeks of feeding the diets, obese animals were divided into two groups: one groups continued to be fed on the same HFD; however, another group was fed on the same diet and received either NKS-3 or NKS-5) until 28th of weeks of experimentation. At the end, the animals were sacrificed, under a fasting condition, and used for different analysis in blood and different tissues.
In order to elucidate the beneficial effects and especially during obesity, experiments were conducted on obese C57BL/6J mice. […] In order to test the curative/interventional effects on obesity, the animals were divided into two groups: one group that consume only the high-fat diet (HFD) and the other consuming the same diet and also receiving NKS-3 or NKS-5 in adlibitum baby bottles/feeders. From the 10th week of the diet, lipid analogues were introduced into the bottles at concentrations that corresponded to their preference in the double choice test (NKS-5 at 75 μM; NKS-3 at 50 μM). […] In addition, the decrease in obesity was maintained until the 28th week of feeding a HFD (FIGS. 13A and 13B).

obese C57BL/6J mice [2] = assay: Blood biochemical parameters in diet-induced obese mice (ELISA, automatic analyzer); assay type: in vivo, mouse; conditions: obese animals
Method: as §4, §5, §6
The rat/mouse insulin ELISA kit was obtained from EMD Millipore (USA). ELISA kits for CCK, PYY and GLP-1 were purchased from Cloud-Clone Corp. (USA). The ALAT (Alanine Amino Transferase) was determined by an automatic analyzer (Gilford Model 2000 system, a Beckman System T.R).

C57BL/6J mice = assay: Liver histology in normal diet or HFD fed mice; assay type: in vivo, mouse; conditions: for liver steatosis in liver sections of obese mice: HFD
Method: as §4, §5, §6
The liver of the mice at the time of sacrifice were fixed in formaldehyde and then dehydrated by passaging into ethanoic media. The liver tissues were embedded into the paraffin and 5μ thick section were cut by the microtome as per standard procedures. The slides, containing tissues, were stained by hematoxylin and eosin dyes as per standard methods. The stained slides were observed under Zeiss light microscope at 10× or 20× magnifications.

- EC50 (mouse taste bud cells): 30 ± 0.01 µM
- CD36 agonist character (CD36): partial agonist
- liver histology, normal diet fed mice (C57BL/6J mice): did not exert any effect
SMILES: CCCCC/C=C\C/C=C\CCCCCCCC(=O)OCC1(C)COC1 [NKS-5, (9Z,12Z)-(3-methyloxetan-3-yl)methyl octadeca-9,12-dienoate]
- increase in [Ca2+]i (mouse taste bud cells): very rapid
- action of CD36 inhibitor SSO on the increase in [Ca2+]i (CD36): partially inhibited; also recorded: curtailed, but not completely suppressed
- effect of GPR120 inhibitor AH7614 on the increase in [Ca2+]i (GPR120): significantly curtailed, but not suppressed
- ratio of LA preferred concentration to that of test compound (mice (C57Bl/6 black)): 93 times
- preference versus control solution (xanthan gum) (mice (C57Bl/6 black); mice): spontaneous preference
- effect on palatability of a sucrose-containing solution (mice (C57Bl/6 black); mice): increases the palatability
- preferred (optimal) concentration in two-bottle preference test (mice (C57Bl/6 black); mice): 75 µM
- body weight in obese mice (obese C57BL/6J mice [1]): significant decrease in body weight
- body weight of control animals (obese C57BL/6J mice [1]): no effect
- blood concentration of ALAT (obese C57BL/6J mice [2]): decreased
- circulating concentrations of IL-6 (obese C57BL/6J mice [2]): decrease
- insulin concentrations (obese C57BL/6J mice [2]): decreases
- liver steatosis in liver sections of obese mice (C57BL/6J mice): curative effects

SMILES: CCCCC/C=C\C/C=C\CCCCCCCC(=O)O [Linoleic acid, linoleic acid]
- increase in [Ca2+]i (mouse taste bud cells): huge increase
- action of CD36 inhibitor SSO on the increase in [Ca2+]i (CD36; listed as LA): completely blocked; also recorded: suppressed
- preference versus control solution (xanthan gum) (mice (C57Bl/6 black); mice): strong preference
- concentration preferred in two-bottle preference test (mice (C57Bl/6 black); mice, 7.13 mM or 0.2%): 7.13 mM

SMILES: CCCCC/C=C\C/C=C\CCCCCCCCP(=O)(OCC)OCC [NKS-3, diethyl (9Z,12Z)-octadeca-9,12-dien-1-ylphosphonate]
- increase in [Ca2+]i (mouse taste bud cells): very rapid
- EC50 (mouse taste bud cells): 25 ± 0.01 µM
- action of CD36 inhibitor SSO on the increase in [Ca2+]i (CD36): completely blocked; also recorded: completely suppressed
- CD36 agonist character (CD36): complete CD36 agonist
- ratio of LA preferred concentration to that of test compound (mice (C57Bl/6 black)): 140 times
- preference versus control solution (xanthan gum) (mice (C57Bl/6 black); mice): spontaneous preference
- effect on palatability of a sucrose-containing solution (mice (C57Bl/6 black); mice): failed to enhance the palatability
- preferred (optimal) concentration in two-bottle preference test (mice (C57Bl/6 black); mice): 50 µM
- body weight in obese mice (obese C57BL/6J mice [1]): significant decrease in body weight
- body weight of control animals (obese C57BL/6J mice [1]): no effect
- blood concentration of ALAT (obese C57BL/6J mice [2]): decreased
- circulating concentrations of IL-6 (obese C57BL/6J mice [2]): decrease
- insulin concentrations (obese C57BL/6J mice [2]): decreases
- liver steatosis in liver sections of obese mice (C57BL/6J mice): curative effects
- liver histology, normal diet fed mice (C57BL/6J mice): did not exert any effect
